Test results from PubChem BioAssay AID214 (DTP/NCI, 2004).
Several values for one entry are separate records, joined by “and”; a condition that tells them apart may be missing. Equal entries are not always repeated. Records with an inconclusive call do not appear.

System: B6C3F1 mice, colon carcinoma 38 s.c., T/C
Assay: NCI In Vivo Anticancer Drug Screen. Data for tumor model Colon Carcinoma 38 (subcutaneous) in B6C3F1 mice
Conditions: endpoint: median tumor weight (est.), higher = larger tumour
Experimental: The antitumor activity of compounds was measured in mice bearing transplantable tumors. Survival or tumor size were measured and the results are expressed as the measurement made in the treated group (T) divided by the measurement made in the vehicle treated control group (C). The tumor model used in this assay is Colon Carcinoma 38 (subcutaneous) in B6C3F1 mice

[1] = dose: 50.0 mg/kg/injection, schedule: Q07DX002 (ip), vehicle: saline
[2] = dose: 100.0 mg/kg/injection, schedule: Q07DX002 (ip), vehicle: saline
[3] = dose: 200.0 mg/kg/injection, schedule: Q07DX002 (ip), vehicle: saline
[4] = dose: 50.0 mg/kg/injection, schedule: Q07DX002 (ip), vehicle: suspension in saline
[5] = dose: 100.0 mg/kg/injection, schedule: Q07DX002 (ip), vehicle: suspension in saline
[6] = dose: 50.0 mg/kg/injection, schedule: Q07DX002 (ip), vehicle: saline with Tween-80
[7] = dose: 100.0 mg/kg/injection, schedule: Q07DX002 (ip), vehicle: saline with Tween-80
[8] = dose: 200.0 mg/kg/injection, schedule: Q07DX002 (ip), vehicle: saline with Tween-80
[9] = dose: 400.0 mg/kg/injection, schedule: Q07DX002 (ip), vehicle: saline with Tween-80
[10] = dose: 25.0 mg/kg/injection, schedule: Q07DX002 (ip), vehicle: Klucel (hydroxypropylcellulose) (HPC)
[11] = dose: 12.5 mg/kg/injection, schedule: Q07DX002 (ip), vehicle: saline with Tween-80
[12] = dose: 25.0 mg/kg/injection, schedule: Q07DX002 (ip), vehicle: saline with Tween-80
[13] = dose: 50.0 mg/kg/injection, schedule: Q07DX002 (ip), vehicle: Klucel (hydroxypropylcellulose) (HPC)

NC(=O)c1c[se]c(C2OC(CO)C(O)C2O)n1 (stereo unspecified)
T/C [1]: 90 % of control
T/C [2]: 87 % of control
T/C [3]: 84 % of control
T/C (dose: 400.0 mg/kg/injection, schedule: Q07DX002 (ip), vehicle: saline): 92 % of control
T/C (dose: 800.0 mg/kg/injection, schedule: Q07DX002 (ip), vehicle: saline): 56 % of control

O=C(COc1cccc2c(=O)cc(-c3ccccc3)oc12)OCCN1CCOCC1
T/C [2]: 81 % of control
T/C [3]: 43 % of control

N[C@@H](Cc1ccc(N(CCCl)CCCl)cc1)C(=O)O
T/C (dose: 1.2 mg/kg/injection, schedule: Q01DX006 (ip), vehicle: saline): 35 % of control
T/C (dose: 1.8 mg/kg/injection, schedule: Q01DX006 (ip), vehicle: saline): 62 % of control
T/C (dose: 2.7 mg/kg/injection, schedule: Q01DX006 (ip), vehicle: saline): 38 % of control
T/C (dose: 4.0 mg/kg/injection, schedule: Q01DX006 (ip), vehicle: saline): 50 % of control

CCC(C(=O)O)C(=O)O.[NH2-].[NH2-].[Pt+2]
T/C [4]: 61 % of control
T/C [5]: 45 % of control
T/C [3]: 62 % of control

Nc1nc(N)c2cc(S(=O)(=O)c3ccccc3)ccc2n1
T/C [6]: 62 % of control
T/C [7]: 45 % of control
T/C [8]: 44 % of control
T/C [9]: 24 % of control

COc1cc(C)c(C2NC(=O)c3ccccc3N2)cc1C (stereo unspecified)
T/C (dose: 450.0 mg/kg/injection, schedule: Q07DX002 (ip), vehicle: Klucel (hydroxypropylcellulose) (HPC)): 70 % of control
T/C (dose: 900.0 mg/kg/injection, schedule: Q07DX002 (ip), vehicle: Klucel (hydroxypropylcellulose) (HPC)): 53 % of control
T/C (dose: 1800.0 mg/kg/injection, schedule: Q07DX002 (ip), vehicle: Klucel (hydroxypropylcellulose) (HPC)): 115 % of control
T/C (dose: 3600.0 mg/kg/injection, schedule: Q07DX002 (ip), vehicle: Klucel (hydroxypropylcellulose) (HPC)): 55 % of control

O=C1SC(c2ccccc2)=S=C1c1ccccc1
T/C [6]: 152 % of control
T/C [7]: 114 % of control
T/C [8]: 104 % of control
T/C [9]: 120 % of control
T/C (dose: 800.0 mg/kg/injection, schedule: Q07DX002 (ip), vehicle: saline with Tween-80): 104 % of control

N=C(N)CCCCCCCCC(=N)N
T/C (dose: 6.25 mg/kg/injection, schedule: Q07DX002 (ip), vehicle: Klucel (hydroxypropylcellulose) (HPC)): 169 % of control
T/C (dose: 12.5 mg/kg/injection, schedule: Q07DX002 (ip), vehicle: Klucel (hydroxypropylcellulose) (HPC)): 109 % of control
T/C [10]: 109 % of control

[Cl][Hg][Cl]
T/C (dose: 1.56 mg/kg/injection, schedule: Q07DX002 (ip), vehicle: saline): 80 % of control
T/C (dose: 3.12 mg/kg/injection, schedule: Q07DX002 (ip), vehicle: saline): 124 % of control

O=C(O)C(O)C(O)C1[O][Sb][O]C1C(=O)O (stereo unspecified)
T/C (dose: 12.5 mg/kg/injection, schedule: Q07DX002 (ip), vehicle: saline): 76 % of control
T/C (dose: 25.0 mg/kg/injection, schedule: Q07DX002 (ip), vehicle: saline): 84 % of control
T/C [1]: 123 % of control
T/C [2]: 107 % of control

OCC(O)C(O)C(O)C(O)CO (stereo unspecified)
T/C (dose: 75.0 mg/kg/injection, schedule: Q07DX002 (ip), vehicle: saline): 90 % of control
T/C (dose: 150.0 mg/kg/injection, schedule: Q07DX002 (ip), vehicle: saline): 66 % of control
T/C (dose: 300.0 mg/kg/injection, schedule: Q07DX002 (ip), vehicle: saline): 111 % of control
T/C (dose: 600.0 mg/kg/injection, schedule: Q07DX002 (ip), vehicle: saline): 92 % of control
T/C (dose: 1200.0 mg/kg/injection, schedule: Q07DX002 (ip), vehicle: saline): 86 % of control

C[CH2][Sn]([CH2]C)([CH2]C(=O)OC)[CH2]C(=O)OC
T/C (dose: 1.56 mg/kg/injection, schedule: Q07DX002 (ip), vehicle: saline with Tween-80): 51 % of control
T/C (dose: 3.12 mg/kg/injection, schedule: Q07DX002 (ip), vehicle: saline with Tween-80): 113 % of control
T/C (dose: 6.25 mg/kg/injection, schedule: Q07DX002 (ip), vehicle: saline with Tween-80): 109 % of control
T/C [11]: 65 % of control
T/C [12]: 74 % of control

CCN(CC)c1ccc2[nH]c3c(C(N)=O)cc(=O)c(=O)c=3oc2c1
T/C [7]: 93 % of control
T/C [8]: 99 % of control
T/C [9]: 93 % of control

Cc1cc(NS(=O)(=O)c2ccc(N=Nc3cc(N=Nc4ccc(S(=O)(=O)Nc5cc(C)nc(C)n5)cc4)c4c(NC(=O)C(Cl)Cl)cccc4c3OC(=O)C(Cl)Cl)cc2)nc(C)n1 (tested in a mixture with another compound)
T/C (dose: 25.0 mg/kg/injection, schedule: Q07DX002 (ip), vehicle: suspension in saline): 111 % of control
T/C (dose: 400.0 mg/kg/injection, schedule: Q07DX002 (ip), vehicle: suspension in saline): 114 % of control

CO[C@@]12[C@H](COC(N)=O)C3=C(C(=O)C(C)=C(N)C3=O)N1C[C@@H]1N[C@@H]12
T/C (dose: 0.5 mg/kg/injection, schedule: Q07DX002 (ip), vehicle: saline): 77 % of control
T/C (dose: 4.0 mg/kg/injection, schedule: Q07DX002 (ip), vehicle: saline): 18 % of control and 19 % of control

O=C(CCCCCCC(=O)ON1C(=O)CCC1=O)ON1C(=O)CCC1=O
T/C [11]: 74 % of control
T/C [12]: 69 % of control
T/C [8]: 108 % of control

O=C1CC2(C(=O)N1CN1CCOCC1)c1ccccc1-c1ccccc12
T/C [13]: 99 % of control
T/C (dose: 100.0 mg/kg/injection, schedule: Q07DX002 (ip), vehicle: Klucel (hydroxypropylcellulose) (HPC)): 44 % of control
T/C (dose: 200.0 mg/kg/injection, schedule: Q07DX002 (ip), vehicle: Klucel (hydroxypropylcellulose) (HPC)): 107 % of control
T/C (dose: 400.0 mg/kg/injection, schedule: Q07DX002 (ip), vehicle: Klucel (hydroxypropylcellulose) (HPC)): 79 % of control
T/C (dose: 800.0 mg/kg/injection, schedule: Q07DX002 (ip), vehicle: Klucel (hydroxypropylcellulose) (HPC)): 56 % of control

O=C(Cc1cccc2c(=O)cc(-c3ccccc3)oc12)OCCN1CCOCC1
T/C [4]: 70 % of control
T/C [5]: 49 % of control
T/C (dose: 200.0 mg/kg/injection, schedule: Q07DX002 (ip), vehicle: suspension in saline): 68 % of control
T/C (dose: 300.0 mg/kg/injection, schedule: Q07DX002 (ip), vehicle: suspension in saline): 17 % of control

N=c1ccn2c(n1)OC1C(O)C(CO)OC12 (stereo unspecified)
T/C (dose: 100.0 mg/kg/injection, schedule: Q07DX003 (ip), vehicle: saline): 90 % of control
T/C (dose: 200.0 mg/kg/injection, schedule: Q07DX003 (ip), vehicle: saline): 98 % of control
T/C (dose: 400.0 mg/kg/injection, schedule: Q07DX003 (ip), vehicle: saline): 92 % of control
T/C (dose: 800.0 mg/kg/injection, schedule: Q07DX003 (ip), vehicle: saline): 61 % of control
T/C (dose: 1600.0 mg/kg/injection, schedule: Q07DX003 (ip), vehicle: saline): 40 % of control

OC(CBr)C(O)C(O)C(O)CBr (stereo unspecified)
T/C [10]: 83 % of control
T/C [13]: 83 % of control

NC(CSC(c1ccccc1)(c1ccccc1)c1ccccc1)C(=O)O (stereo unspecified)
T/C (dose: 32.0 mg/kg/injection, schedule: Q07DX002 (ip), vehicle: saline with Tween-80): 87 % of control
T/C (dose: 32.0 mg/kg/injection, schedule: Q07DX003 (ip), vehicle: saline with Tween-80): 46 % of control
T/C (dose: 64.0 mg/kg/injection, schedule: Q07DX002 (ip), vehicle: saline with Tween-80): 81 % of control
T/C (dose: 64.0 mg/kg/injection, schedule: Q07DX003 (ip), vehicle: saline with Tween-80): 105 % of control
T/C (dose: 128.0 mg/kg/injection, schedule: Q07DX002 (ip), vehicle: saline with Tween-80): 63 % of control
T/C (dose: 128.0 mg/kg/injection, schedule: Q07DX003 (ip), vehicle: saline with Tween-80): 72 % of control
T/C (dose: 256.0 mg/kg/injection, schedule: Q07DX002 (ip), vehicle: saline with Tween-80): 30 % of control
T/C (dose: 256.0 mg/kg/injection, schedule: Q07DX003 (ip), vehicle: saline with Tween-80): 45 % of control
T/C (dose: 512.0 mg/kg/injection, schedule: Q07DX002 (ip), vehicle: saline with Tween-80): 2 % of control
